From patent publication US8513238B2 (Hoffmann-La Roche Inc., priority 2010, dated 2013)
Where a name gives a salt, the structure may show the parent alone.

target: T1, human V1a receptor (Homo sapiens, UniProt P37288); assay: human V1a receptor binding (3H-Vasopressin SPA, HEK293 membranes); conditions: membranes of HEK293 cells transiently transfected with human V1a receptor, Ki by Cheng-Prussoff, read-out: pKi (hV1a) (converted)
T1 construct: expressed in transfected cells; host or cells: HEK293 cells, transiently transfected; membranes prepared
T1 sequence (P37288 whole entry): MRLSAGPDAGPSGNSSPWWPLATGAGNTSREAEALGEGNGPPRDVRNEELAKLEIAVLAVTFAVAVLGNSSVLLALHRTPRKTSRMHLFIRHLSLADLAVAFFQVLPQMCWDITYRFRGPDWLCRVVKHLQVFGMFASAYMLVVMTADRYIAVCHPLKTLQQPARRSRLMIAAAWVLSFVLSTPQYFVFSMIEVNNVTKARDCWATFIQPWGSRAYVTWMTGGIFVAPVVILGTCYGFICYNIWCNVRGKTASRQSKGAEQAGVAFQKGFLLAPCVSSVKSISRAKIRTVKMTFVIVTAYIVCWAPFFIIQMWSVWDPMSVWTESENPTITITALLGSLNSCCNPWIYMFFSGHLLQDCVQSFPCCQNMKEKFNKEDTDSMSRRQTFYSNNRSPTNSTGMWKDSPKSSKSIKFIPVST
Experimental: The human V1a receptor was cloned by RT-PCR from total human liver RNA. The coding sequence was subcloned in an expression vector after sequencing to confirm the identity of the amplified sequence. […] Cell membranes were prepared from HEK293 cells transiently transfected with the expression vector and grown in 20 liter fermenters with the following protocol.
50 g of cells are resuspended in 30 ml freshly prepared ice cold Lysis buffer (50 mM HEPES, 1 mM EDTA, 10 mM magnesium dichloride adjusted to pH=7.4+complete cocktail of protease inhibitor (Roche Diagnostics)). Homogenized with Polytron for 1 min and sonicated on ice for 2×2 minutes at 80% intensity (Vibracell sonicator). The preparation is centrifuged 20 min at 500 g at 4° C., the pellet is discarded and the supernatant centrifuged 1 hour at 43,000 g at 4° C. (19,000 rpm). The pellet is resuspended in 12.5 ml Lysis buffer+12.5 ml sucrose 20% and homogenized using a Polytron for 1-2 min. The protein concentration is determined by the Bradford method and aliquots are stored at −80° C. until use. For binding studies 60 mg Yttrium silicate SPA beads (Amersham®) are mixed with an aliquot of membrane in binding buffer (50 mM Tris, 120 mM sodium chloride, 5 mM potassium chloride, 2 mM calcium dichloride, 10 mM magnesium dichloride) for 15 minutes with mixing. 50 μl of bead/membrane mixture is then added to each well of a 96 well plate, followed by 50 μl of 4 nM 3H-Vasopressin (American Radiolabeled Chemicals). For total binding measurement 100 μl of binding buffer are added to the respective wells, for non-specific binding 100 μl of 8.4 mM cold vasopressin and for compound testing 100 μl of a serial dilution of each compound in 2% dimethyl sulfoxide. The plate is incubated 1 h at room temperature, centrifuged 1 min at 1000 g and counted on a Packard Top-Count. Non-specific binding counts are subtracted from each well and data is normalized to the maximum specific binding set at 100%. To calculate an IC50 the curve is fitted using a non-linear regression model (XLfit) and the Ki is calculated using the Cheng-Prussoff equation.

Going from `CCc1cc([C@H]2CC[C@@H](c3nnc4n3-c3ccc(Cl)cc3CN(C)C4)CC2)no1` [Example 51, cis-8-Chloro-1-[4-(5-ethyl-isoxazol-3-yl)-cyclohexyl]-5-methyl-5,6-dihydro-4H-2,3,5,10b-tetraaza-benzo[e]azulene] to `CCc1cc([C@H]2CC[C@H](c3nnc4n3-c3ccc(Cl)cc3CN(C)C4)CC2)no1` [Example 53, trans-8-Chloro-1-[4-(5-ethyl-isoxazol-3-yl)-cyclohexyl]-5-methyl-5,6-dihydro-4H-2,3,5,10b-tetraaza-benzo[e]azulene], the Ki falls from 15.5 nM to 1.2 nM (13-fold).

Going from `CCc1cc([C@H]2CC[C@H](c3nnc4n3-c3ccc(Cl)cc3CNC4)CC2)no1` [Example 52, trans-8-Chloro-1-[4-(5-ethyl-isoxazol-3-yl)-cyclohexyl]-5,6-dihydro-4H-2,3,5,10b-tetraaza-benzo[e]azulene hydrochloride] to `Cc1noc([C@H]2CC[C@H](c3nnc4n3-c3ccc(Cl)cc3CNC4)CC2)n1` [Example 67, trans-8-Chloro-1-[4-(3-methyl-[1,2,4]oxadiazol-5-yl)-cyclohexyl]-5,6-dihydro-4H-2,3,5,10b-tetraaza-benzo[e]azulene hydrochloride], the Ki rises from 6.31 nM to 67.6 nM (11-fold).

Compared with `CC(C)(C)OC(=O)N1Cc2cc(Cl)ccc2-n2c(nnc2[C@H]2CC[C@H](c3noc4c3CCCC4)CC2)C1` [Example 54, trans-8-Chloro-1-[4-(4,5,6,7-tetrahydro-benzo[d]isoxazol-3-yl)-cyclohexyl]-4H,6H-2,3,5,10b-tetraaza-benzo[e]azulene-5-carboxylic acid tert-butyl ester], `CC(C)(C)OC(=O)N1Cc2cc(Cl)ccc2-n2c(nnc2[C@H]2CC[C@@H](c3noc4c3CCCC4)CC2)C1` [Example 57, cis-8-Chloro-1-[4-(4,5,6,7-tetrahydro-benzo[d]isoxazol-3-yl)-cyclohexyl]-4H,6H-2,3,5,10b-tetraaza-benzo[e]azulene-5-carboxylic acid tert-butyl ester] is 4.9-fold higher in Ki: 9.55 nM for the first, 46.8 nM for the second.

First: Clc1ccc2c(c1)CNCc1nnc([C@H]3CC[C@H](c4noc5c4CCCC5)CC3)n1-2 [Example 55, trans-8-Chloro-1-[4-(4,5,6,7-tetrahydro-benzo[d]isoxazol-3-yl)-cyclohexyl]-5,6-dihydro-4H-2,3,5,10b-tetraaza-benzo[e]azulene]
Second: Clc1ccc2c(c1)CNCc1nnc([C@H]3CC[C@@H](c4noc5c4CCCC5)CC3)n1-2 [Example 58, cis-8-Chloro-1-[4-(4,5,6,7-tetrahydro-benzo[d]isoxazol-3-yl)-cyclohexyl]-5,6-dihydro-4H-2,3,5,10b-tetraaza-benzo[e]azulene]
The Ki of the first is 32-fold lower: 5.89 nM for the first, 191 nM for the second.

Going from `CN1Cc2cc(Cl)ccc2-n2c(nnc2[C@H]2CC[C@H](c3noc4c3CCCC4)CC2)C1` [Example 56, trans-8-Chloro-5-methyl-1-[4-(4,5,6,7-tetrahydro-benzo[d]isoxazol-3-yl)-cyclohexyl]-5,6-dihydro-4H-2,3,5,10b-tetraaza-benzo[e]azulene] to `CN1Cc2cc(Cl)ccc2-n2c(nnc2[C@H]2CC[C@@H](c3noc4c3CCCC4)CC2)C1` [Example 59, cis-8-Chloro-5-methyl-1-[4-(4,5,6,7-tetrahydro-benzo[d]isoxazol-3-yl)-cyclohexyl]-5,6-dihydro-4H-2,3,5,10b-tetraaza-benzo[e]azulene], the Ki rises from 1.58 nM to 8.13 nM (5.1-fold).

First: CC(C)(C)OC(=O)N1Cc2cc(Cl)ccc2-n2c(nnc2[C@H]2CC[C@H](c3onc4c3CCCC4)CC2)C1 [Example 60, trans-8-Chloro-1-[4-(4,5,6,7-tetrahydro-benzo[c]isoxazol-3-yl)-cyclohexyl]-4H,6H-2,3,5,10b-tetraaza-benzo[e]azulene-5-carboxylic acid tert-butyl ester]
Second: CN1Cc2cc(Cl)ccc2-n2c(nnc2[C@H]2CC[C@H](c3onc4c3CCCC4)CC2)C1 [Example 62, trans-8-Chloro-5-methyl-1-[4-(4,5,6,7-tetrahydro-benzo[c]isoxazol-3-yl)-cyclohexyl]-5,6-dihydro-4H-2,3,5,10b-tetraaza-benzo[e]azulene]
The Ki of the first is 2.5-fold higher: 15.5 nM for the first, 6.31 nM for the second.

Compared with `Clc1ccc2c(c1)CNCc1nnc([C@H]3CC[C@H](c4onc5c4CCCC5)CC3)n1-2` [Example 61, trans-8-Chloro-1-[4-(4,5,6,7-tetrahydro-benzo[c]isoxazol-3-yl)-cyclohexyl]-5,6-dihydro-4H-2,3,5,10b-tetraaza-benzo[e]azulene], `Cc1nc([C@H]2CC[C@H](c3nnc4n3-c3ccc(Cl)cc3CNC4)CC2)no1` [Example 73, trans-8-Chloro-1-[4-(5-methyl-[1,2,4]oxadiazol-3-yl)-cyclohexyl]-5,6-dihydro-4H-2,3,5,10b-tetraaza-benzo[e]azulene hydrochloride] is 1.9-fold lower in Ki: 30.2 nM for the first, 15.8 nM for the second.

Compared with `Cc1nnc([C@H]2CC[C@H](c3nnc4n3-c3ccc(Cl)cc3CN(C(=O)OC(C)(C)C)C4)CC2)o1` [Example 63, trans-8-Chloro-1-[4-(5-methyl-[1,3,4]oxadiazol-2-yl)-cyclohexyl]-4H,6H-2,3,5,10b-tetraaza-benzo[e]azulene-5-carboxylic acid tert-butyl ester], `Cc1noc([C@H]2CC[C@H](c3nnc4n3-c3ccc(Cl)cc3CN(C(=O)OC(C)(C)C)C4)CC2)n1` [Example 66, trans-8-Chloro-1-[4-(3-methyl-[1,2,4]oxadiazol-5-yl)-cyclohexyl]-4H,6H-2,3,5,10b-tetraaza-benzo[e]azulene-5-carboxylic acid tert-butyl ester] is 1.8-fold higher in Ki: 1.58 nM for the first, 2.88 nM for the second.

First: Cc1nnc([C@H]2CC[C@H](c3nnc4n3-c3ccc(Cl)cc3CNC4)CC2)o1 [Example 64, trans-8-Chloro-1-[4-(5-methyl-[1,3,4]oxadiazol-2-yl)-cyclohexyl]-5,6-dihydro-4H-2,3,5,10b-tetraaza-benzo[e]azulene]
Second: Cc1nnc([C@H]2CC[C@H](c3nnc4n3-c3ccc(Cl)cc3CN(C)C4)CC2)o1 [Example 65, trans-8-Chloro-5-methyl-1-[4-(5-methyl-[1,3,4]oxadiazol-2-yl)-cyclohexyl]-5,6-dihydro-4H-2,3,5,10b-tetraaza-benzo[e]azulene]
The Ki of the first is 13-fold higher: 204 nM for the first, 15.8 nM for the second.

Compared with `Cc1noc([C@H]2CC[C@H](c3nnc4n3-c3ccc(Cl)cc3CN(C)C4)CC2)n1` [Example 68, trans-8-Chloro-5-methyl-1-[4-(3-methyl-[1,2,4]oxadiazol-5-yl)-cyclohexyl]-5,6-dihydro-4H-2,3,5,10b-tetraaza-benzo[e]azulene], `Cc1nc([C@H]2CC[C@H](c3nnc4n3-c3ccc(Cl)cc3CN(C)C4)CC2)no1` [Example 74, trans-8-Chloro-5-methyl-1-[4-(5-methyl-[1,2,4]oxadiazol-3-yl)-cyclohexyl]-5,6-dihydro-4H-2,3,5,10b-tetraaza-benzo[e]azulene] is 2-fold lower in Ki: 6.61 nM for the first, 3.24 nM for the second.

First: Cc1nsc([C@H]2CC[C@H](c3nnc4n3-c3ccc(Cl)cc3CN(C(=O)OC(C)(C)C)C4)CC2)n1 [Example 69, trans-8-Chloro-1-[4-(3-methyl-[1,2,4]thiadiazol-5-yl)-cyclohexyl]-4H,6H-2,3,5,10b-tetraaza-benzo[e]azulene-5-carboxylic acid tert-butyl ester]
Second: Cc1nc([C@H]2CC[C@H](c3nnc4n3-c3ccc(Cl)cc3CN(C(=O)OC(C)(C)C)C4)CC2)no1 [Example 72, trans-8-Chloro-1-[4-(5-methyl-[1,2,4]oxadiazol-3-yl)-cyclohexyl]-4H,6H-2,3,5,10b-tetraaza-benzo[e]azulene-5-carboxylic acid tert-butyl ester]
The Ki of the first is 2.1-fold higher: 1.51 nM for the first, 0.708 nM for the second.

Compared with `Cc1nsc([C@H]2CC[C@H](c3nnc4n3-c3ccc(Cl)cc3CNC4)CC2)n1` [Example 70, trans-8-Chloro-1-[4-(3-methyl-[1,2,4]thiadiazol-5-yl)-cyclohexyl]-5,6-dihydro-4H-2,3,5,10b-tetraaza-benzo[e]azulene], `Cc1nsc([C@H]2CC[C@H](c3nnc4n3-c3ccc(Cl)cc3CN(C)C4)CC2)n1` [Example 71, trans-8-Chloro-5-methyl-1-[4-(3-methyl-[1,2,4]thiadiazol-5-yl)-cyclohexyl]-5,6-dihydro-4H-2,3,5,10b-tetraaza-benzo[e]azulene] is 8.5-fold lower in Ki: 129 nM for the first, 15.1 nM for the second.

`CCN1Cc2cc(Cl)ccc2-n2c(nnc2[C@H]2CC[C@H](c3noc(C)n3)CC2)C1` [Example 75, trans-8-Chloro-5-ethyl-1-[4-(5-methyl-[1,2,4]oxadiazol-3-yl)-cyclohexyl]-5,6-dihydro-4H-2,3,5,10b-tetraaza-benzo[e]azulene] and `Cc1nc([C@H]2CC[C@H](c3nnc4n3-c3ccc(Cl)cc3CN(C(C)C)C4)CC2)no1` [Example 76, trans-8-Chloro-5-isopropyl-1-[4-(5-methyl-[1,2,4]oxadiazol-3-yl)-cyclohexyl]-5,6-dihydro-4H-2,3,5,10b-tetraaza-benzo[e]azulene] are within 1.5-fold of each other in Ki: 6.76 nM for the first, 10 nM for the second.
